Active and inactive are the calls of the source.
Legend:
Aminopeptidase N = target: T1, Aminopeptidase N (Plasmodium falciparum FcB1/Columbia, UniProt O96935); test: P. falciparum M1AAP inhibitors, biochemical, fluorogenic H-Leu-NHMec substrate, 1536-well (AID 1445); set-up: species or system Plasmodium falciparum 3D7, 3D7
T1 sequence (O96935 whole entry): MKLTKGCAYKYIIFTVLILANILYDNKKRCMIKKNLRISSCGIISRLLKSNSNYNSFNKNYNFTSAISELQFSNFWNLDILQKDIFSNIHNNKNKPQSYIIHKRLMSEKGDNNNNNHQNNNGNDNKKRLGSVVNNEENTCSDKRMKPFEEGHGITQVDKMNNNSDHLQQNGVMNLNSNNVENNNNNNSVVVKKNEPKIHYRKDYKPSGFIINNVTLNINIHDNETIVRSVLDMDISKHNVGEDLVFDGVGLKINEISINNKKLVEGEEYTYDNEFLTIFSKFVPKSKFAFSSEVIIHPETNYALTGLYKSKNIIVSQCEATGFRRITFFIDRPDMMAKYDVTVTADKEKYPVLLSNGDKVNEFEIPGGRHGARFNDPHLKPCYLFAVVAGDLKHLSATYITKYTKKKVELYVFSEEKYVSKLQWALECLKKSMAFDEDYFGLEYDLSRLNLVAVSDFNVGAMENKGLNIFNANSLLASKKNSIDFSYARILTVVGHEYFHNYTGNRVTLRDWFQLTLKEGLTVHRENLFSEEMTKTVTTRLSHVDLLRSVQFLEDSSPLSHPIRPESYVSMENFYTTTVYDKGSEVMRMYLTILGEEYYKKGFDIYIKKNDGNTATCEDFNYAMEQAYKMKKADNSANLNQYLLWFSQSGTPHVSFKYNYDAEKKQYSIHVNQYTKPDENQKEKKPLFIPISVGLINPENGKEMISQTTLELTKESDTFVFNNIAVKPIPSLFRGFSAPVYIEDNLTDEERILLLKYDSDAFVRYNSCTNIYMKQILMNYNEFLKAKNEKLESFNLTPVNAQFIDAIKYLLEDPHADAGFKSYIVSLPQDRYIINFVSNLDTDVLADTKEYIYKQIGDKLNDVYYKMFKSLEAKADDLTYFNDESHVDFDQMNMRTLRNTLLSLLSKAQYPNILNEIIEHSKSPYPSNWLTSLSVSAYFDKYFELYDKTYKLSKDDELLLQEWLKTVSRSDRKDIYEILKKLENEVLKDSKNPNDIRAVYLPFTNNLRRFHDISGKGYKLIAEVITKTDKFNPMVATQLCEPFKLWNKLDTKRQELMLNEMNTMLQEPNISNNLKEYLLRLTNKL

HEK293 = test: inhibitors of LMP1-driven NF-kB reporter, dose response, cell-based, HEK293, luciferase, cherry-pick (AID 588343); assay type: functional; conditions: Homo sapiens
Genome polyprotein = Genome polyprotein (dengue virus type 2, UniProt P29990); test: Dengue-2 NS5 methyltransferase inhibitors, primary screen, biochemical, confirmation dose response (AID 588689); assay type: functional
Chain of Genome polyprotein (P29990 2492-3391 limits assumed): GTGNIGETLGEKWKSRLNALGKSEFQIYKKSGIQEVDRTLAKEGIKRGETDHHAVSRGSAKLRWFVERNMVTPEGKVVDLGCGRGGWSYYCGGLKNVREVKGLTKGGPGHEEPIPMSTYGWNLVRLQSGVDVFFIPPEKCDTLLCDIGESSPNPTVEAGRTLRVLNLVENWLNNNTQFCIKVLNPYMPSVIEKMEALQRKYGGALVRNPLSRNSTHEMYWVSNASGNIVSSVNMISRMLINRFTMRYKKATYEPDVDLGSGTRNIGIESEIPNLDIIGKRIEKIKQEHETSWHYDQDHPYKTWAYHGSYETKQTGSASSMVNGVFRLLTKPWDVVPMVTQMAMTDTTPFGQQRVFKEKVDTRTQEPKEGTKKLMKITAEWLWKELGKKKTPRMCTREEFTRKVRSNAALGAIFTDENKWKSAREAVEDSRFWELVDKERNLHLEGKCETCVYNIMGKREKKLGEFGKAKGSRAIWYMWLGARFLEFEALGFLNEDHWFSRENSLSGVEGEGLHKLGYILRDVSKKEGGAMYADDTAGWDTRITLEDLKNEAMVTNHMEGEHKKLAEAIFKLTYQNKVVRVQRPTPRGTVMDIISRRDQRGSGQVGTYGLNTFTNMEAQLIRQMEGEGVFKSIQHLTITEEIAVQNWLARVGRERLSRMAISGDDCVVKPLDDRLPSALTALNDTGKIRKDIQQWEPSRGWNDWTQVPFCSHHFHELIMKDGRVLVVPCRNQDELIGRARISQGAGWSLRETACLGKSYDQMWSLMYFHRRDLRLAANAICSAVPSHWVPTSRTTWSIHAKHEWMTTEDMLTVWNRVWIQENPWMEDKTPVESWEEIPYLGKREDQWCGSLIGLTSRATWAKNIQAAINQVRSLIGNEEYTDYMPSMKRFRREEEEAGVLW

[1] = target: Nuclear receptor subfamily 5 group A member 2 (Homo sapiens, UniProt O00482); assay type: functional, cell-based;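 also: HEK293T cells transfected with LRH-1 and a StAR promoter luciferase reporter; potency for inhibitors that lower LRH-1 driven reporter light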
Chain of Nuclear receptor subfamily 5 group A member 2 (O00482 whole entry): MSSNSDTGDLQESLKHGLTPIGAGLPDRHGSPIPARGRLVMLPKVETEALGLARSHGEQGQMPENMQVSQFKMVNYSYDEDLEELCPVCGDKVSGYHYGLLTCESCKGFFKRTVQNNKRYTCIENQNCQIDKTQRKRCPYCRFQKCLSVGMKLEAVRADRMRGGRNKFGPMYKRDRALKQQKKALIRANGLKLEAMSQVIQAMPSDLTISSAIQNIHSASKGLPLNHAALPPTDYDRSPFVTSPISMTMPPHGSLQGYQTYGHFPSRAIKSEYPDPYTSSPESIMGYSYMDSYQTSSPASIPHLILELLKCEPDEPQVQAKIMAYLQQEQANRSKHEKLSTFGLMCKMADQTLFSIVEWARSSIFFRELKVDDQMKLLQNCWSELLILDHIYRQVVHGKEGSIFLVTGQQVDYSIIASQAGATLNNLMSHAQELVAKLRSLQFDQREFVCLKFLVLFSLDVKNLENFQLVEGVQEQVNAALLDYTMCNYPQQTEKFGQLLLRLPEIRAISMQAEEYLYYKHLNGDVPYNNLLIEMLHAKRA

Steroidogenic factor 1 = Steroidogenic factor 1 (Homo sapiens, UniProt Q13285); test: Counterscreen for inverse agonists of the liver receptor homolog-1 (LRH-1; NR5A2): Luminescence-based cell-based high throughput dose response assay to identify inverse agonists of the Steroidogenic Factor 1 Nuclear Receptor (SF1; NR5A1).; assay type: functional
Chain of Steroidogenic factor 1 (Q13285 whole entry): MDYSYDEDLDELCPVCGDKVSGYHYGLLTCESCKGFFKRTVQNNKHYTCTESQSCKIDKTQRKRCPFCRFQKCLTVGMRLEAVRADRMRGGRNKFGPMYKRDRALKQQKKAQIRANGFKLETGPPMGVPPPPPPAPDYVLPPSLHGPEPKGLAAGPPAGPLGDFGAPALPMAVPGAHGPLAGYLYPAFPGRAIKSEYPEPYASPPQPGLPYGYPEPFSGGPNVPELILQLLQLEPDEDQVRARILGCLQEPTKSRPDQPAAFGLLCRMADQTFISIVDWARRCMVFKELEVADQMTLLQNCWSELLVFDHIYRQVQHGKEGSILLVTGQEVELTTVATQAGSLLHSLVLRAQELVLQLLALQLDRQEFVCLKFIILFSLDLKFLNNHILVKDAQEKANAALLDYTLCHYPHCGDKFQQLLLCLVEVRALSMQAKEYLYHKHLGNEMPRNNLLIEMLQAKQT

[2] = StAR promoter reporter inhibition counter-screen, dose response, counter-screen for LRH-1 inverse agonist project, cell-based, luminescence, luciferase reporter (AID 651969); assay type: functional
[3] = system: Streptococcus sp. 'group A'; test: growth inhibition of control SK(-) GAS strain, dose response, counter-screen for streptokinase expression inhibitor project, luminescence, kanamycin, BacTiterGlo, confirmation (AID 1900); assay type: functional, organism-based
Streptokinase A = target: T2, Streptokinase A (Streptococcus pyogenes serotype M1, UniProt P10520); test: S. pyogenes streptokinase expression inhibitors, potency, dose response, plasminogen activation absorbance, OD405 (AID 1914); assay type: functional, Streptococcus pyogenes M1 GAS;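 also: secreted streptokinase activity via plasminogen activation per viability signal from cell pellet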
T2 sequence (P10520 whole entry): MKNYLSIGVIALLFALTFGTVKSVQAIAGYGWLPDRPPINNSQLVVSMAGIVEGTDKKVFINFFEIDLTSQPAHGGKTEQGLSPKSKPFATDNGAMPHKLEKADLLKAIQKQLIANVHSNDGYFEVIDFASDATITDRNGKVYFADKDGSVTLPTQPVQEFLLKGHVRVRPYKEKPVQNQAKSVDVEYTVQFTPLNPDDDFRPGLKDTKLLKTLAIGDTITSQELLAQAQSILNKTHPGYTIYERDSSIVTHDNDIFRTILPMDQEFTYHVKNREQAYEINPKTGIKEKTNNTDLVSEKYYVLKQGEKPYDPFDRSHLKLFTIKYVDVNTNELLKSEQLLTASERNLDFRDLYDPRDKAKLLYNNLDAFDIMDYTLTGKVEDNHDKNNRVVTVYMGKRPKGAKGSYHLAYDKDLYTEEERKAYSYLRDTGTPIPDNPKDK

[4] = inhibitors of intracellular T. cruzi replication, confirmation, NIH3T3 host cells, beta-gal luminescence (AID 2044); assay type: functional, cell-based;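 also: intracellular parasites grown in NIH/3T3 mouse fibroblasts as host cells; luminescent beta-galactosidase reporter signal from transgenic T. cruzi replicating inside host cells; inhibitors lower the luminescence signal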
[5] = cytotoxicity toward NIH3T3 fibroblasts, dose response, counter-screen, cell-based, ATP luminescence, mouse fibroblasts (AID 2010); assay type: functional;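 also: cells exposed to compound for about 90 hours before reading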
Streptococcus = test: Group A Streptococcus viability loss, dose response, counter-screen for streptokinase expression inhibitor project, luminescence, BacTiterGlo (AID 1915); assay type: functional, organism-based;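 also: potency for reduction of bacterial viability or growth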
cells [6] = assay type: functional, cell-based
cells [7] = assay type: functional, cell-based; remark: listed apart in the source
INS1 = test: beta cell apoptosis inhibitors, cytokine rescue, dose response, luminescence, retest (AID 449756); assay type: functional, cell-based; conditions: Rattus norvegicus;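 also: cell death triggered by IL-1 beta plus TNF-alpha plus IFN-gamma mixture; protective hits raise ATP signal compared with cytokine alone wells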
[8] = MC4R antagonists, dose response, counter-screen for LGR2 antagonist project, cell-based, plate reader, cherry pick (AID 743444); assay type: functional;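 also: transfected HEK 293 cells stimulated with alpha-MSH peptide; potency of inhibitors of the alpha-MSH evoked signal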
[9] = inhibitors of HIV Env-driven cell fusion, dose response, cherry-pick (AID 652057); assay type: functional, cell-based
[10] = ZM109 Env clade C HIV-1 fusion inhibitors, dose response, HeLa effector, CEM target cells, luciferase, cherry-pick (AID 652058); assay type: functional, cell-based
[11] = off-target signal loss in HeLa-CEM21 co-culture – HeLa F-luc CTL cells, cherry-picked, counter-screen for HIV-1 Env fusion inhibitor project, dose response (AID 652040); assay type: functional, cell-based;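 also: potency for signal decrease marking cytotoxic or nonspecific inhibition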
[12] = inhibitors of clade B AD8 Env fusion, dose response, cell-based, cherry-pick (AID 652062); assay type: functional;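 also: luciferase signal from cell-cell fusion driven by HIV-1 clade B AD8 Env; potency is for inhibitors of fusion seen as a drop in luminescence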
[13] = target: T3, Replicative DNA helicase DnaB (Mycobacterium tuberculosis, UniProt P9WMR3); test: DnaB intein splicing inhibitors, dose response, biochemical, cell-free fluorescence (AID 449749); assay type: functional
T3 sequence (P9WMR3 whole entry): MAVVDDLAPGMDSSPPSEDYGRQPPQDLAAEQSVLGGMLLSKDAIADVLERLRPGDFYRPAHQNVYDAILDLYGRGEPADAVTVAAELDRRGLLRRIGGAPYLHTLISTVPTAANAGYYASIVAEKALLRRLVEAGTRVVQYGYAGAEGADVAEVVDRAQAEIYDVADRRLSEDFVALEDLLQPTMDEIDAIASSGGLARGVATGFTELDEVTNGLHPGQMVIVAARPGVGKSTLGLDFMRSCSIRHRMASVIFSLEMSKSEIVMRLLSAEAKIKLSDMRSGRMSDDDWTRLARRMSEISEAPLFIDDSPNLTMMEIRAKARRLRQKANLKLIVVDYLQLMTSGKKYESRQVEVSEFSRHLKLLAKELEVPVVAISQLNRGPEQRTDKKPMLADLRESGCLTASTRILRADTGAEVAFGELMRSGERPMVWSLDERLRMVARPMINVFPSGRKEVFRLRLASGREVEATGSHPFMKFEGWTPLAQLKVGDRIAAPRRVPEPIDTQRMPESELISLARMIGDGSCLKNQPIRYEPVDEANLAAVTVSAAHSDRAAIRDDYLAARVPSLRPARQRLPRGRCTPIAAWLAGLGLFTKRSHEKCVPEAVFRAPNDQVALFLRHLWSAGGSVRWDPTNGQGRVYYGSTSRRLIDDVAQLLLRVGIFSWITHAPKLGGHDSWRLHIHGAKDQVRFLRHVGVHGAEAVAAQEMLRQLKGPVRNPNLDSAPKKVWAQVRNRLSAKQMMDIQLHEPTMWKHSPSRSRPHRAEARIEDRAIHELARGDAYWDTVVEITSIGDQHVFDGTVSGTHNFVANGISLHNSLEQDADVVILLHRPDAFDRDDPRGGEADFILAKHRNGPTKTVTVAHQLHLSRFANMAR

Protein RecA = target: T4, Protein RecA (Mycobacterium tuberculosis, UniProt P9WHJ3); test: Fluorescence Cell-Free Homogeneous Dose Retest to Identify Inhibitors of RecA-Intein Splicing Activity. [Related pubchem assays (depositor defined):AID2097, AID2223, AID489010, AID492950]; assay type: functional
T4 sequence (P9WHJ3 whole entry): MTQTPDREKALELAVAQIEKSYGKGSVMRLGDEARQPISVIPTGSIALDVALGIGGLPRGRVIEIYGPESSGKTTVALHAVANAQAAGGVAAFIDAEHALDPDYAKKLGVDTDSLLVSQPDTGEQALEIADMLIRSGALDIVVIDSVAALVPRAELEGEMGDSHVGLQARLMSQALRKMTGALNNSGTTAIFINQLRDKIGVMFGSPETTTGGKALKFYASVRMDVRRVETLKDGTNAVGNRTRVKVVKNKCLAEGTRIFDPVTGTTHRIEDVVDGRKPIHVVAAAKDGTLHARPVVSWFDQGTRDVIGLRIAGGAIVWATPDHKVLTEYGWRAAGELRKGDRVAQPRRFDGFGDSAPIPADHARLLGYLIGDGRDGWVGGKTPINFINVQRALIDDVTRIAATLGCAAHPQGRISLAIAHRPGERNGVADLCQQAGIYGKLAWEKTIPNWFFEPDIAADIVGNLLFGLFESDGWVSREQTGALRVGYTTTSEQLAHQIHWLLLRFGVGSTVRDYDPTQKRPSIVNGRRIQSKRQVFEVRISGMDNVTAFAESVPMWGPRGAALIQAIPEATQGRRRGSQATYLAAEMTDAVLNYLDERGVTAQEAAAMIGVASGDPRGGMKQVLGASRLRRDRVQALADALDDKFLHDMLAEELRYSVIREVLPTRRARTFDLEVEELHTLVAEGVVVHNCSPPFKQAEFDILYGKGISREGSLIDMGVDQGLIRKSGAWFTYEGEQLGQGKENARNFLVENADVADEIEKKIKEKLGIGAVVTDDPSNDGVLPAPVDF

Row | SMILES | AC50 (HEK293) | IC50 [1] | IC50 (Steroidogenic factor 1) | IC50 [2] | other results
1 | Cc1nnc(SCC(=O)N2CCC(c3noc4ccc(F)cc34)CC2)s1 | 9.92 µM (active) |  |  |  | IC50 (Aminopeptidase N): 39.1 µM (active)
2 | O=C1/C(=C2\C(=O)N(Cc3ccc(F)cc3)c3ccccc32)SC(=S)N1CCS(=O)(=O)O |  |  |  |  | IC50 (Genome polyprotein): 32.5 µM (active)
3 | Cc1ccc(NC(=O)CSc2sc3c(O)cc(O)nc3c2C#N)c(F)c1 |  | 35.9 µM (inactive) | 35.9 µM (inactive) | 35.9 µM (inactive) | 
4 | Cc1ccc(-c2csc(NC(=O)c3ccc([N+](=O)[O-])o3)n2)cc1 |  | 35.9 µM (inactive) | 4.48 µM (active) | 35.9 µM (inactive) | EC50 [3]: 1.89 µM (active); EC50 (Streptokinase A): 62.4 µM (active); EC50 [4]: 0.37 µM (active); EC50 [5]: 12.2 µM (active); EC50 (Streptococcus): > 150 µM (not active)
5 | N#Cc1ccc(-c2csc(NNC(=O)c3ccc(Br)cc3)n2)cc1 | 8.39 µM (active) |  |  |  | EC50 (cells [6]): > 350 µM (not active); EC50 (cells [7]): > 350 µM (not active); AC50 (INS1): 7.72 µM (active)
6 | O=C(CN1CCOc2ccccc21)NCc1ccc(F)cc1 |  |  |  |  | AC50 [8]: 29.2 µM (active)
7 | Cc1nnc(SCC(=O)Nc2ccc(Br)cc2)n(N)c1=O |  | 35.9 µM (inactive) | 20.1 µM (inactive) | 35.9 µM (inactive) | 
8 | CC[C@]1(C(=O)OC)[C@H]2C(=O)N(Cc3ccccc3)C(=O)[C@H]2[C@H]2CN=C(SCc3ccc(C#N)cc3)N21 | 4.97 µM (active) |  |  |  | AC50 [9]: 0.709 µM (active); AC50 [10]: 1.07 µM (active); AC50 [11]: 1.45 µM (active); AC50 [12]: 5.1 µM (active)
9 | C=CCn1c(=O)/c(=C/c2ccc(Cl)cc2)s/c1=C(\C#N)c1nnc2n1CCCCC2 | 23.9 µM (active) |  |  |  | 
10 | Cc1cccc(CN2C(=O)CSc3ccc(C(=O)NC4CC4)cc32)c1 |  | 1.89 µM (active) | 1.21 µM (active) | 20.1 µM (inactive) | 
11 | CC(=O)Nc1cc(-c2cccc(F)c2)cn2c(-c3ccc(S(C)(=O)=O)cc3)cnc12 |  | 5.75 µM (active) | 2.36 µM (active) | 31.1 µM (inactive) | 
12 | Cc1[nH]n(-c2ccccc2)c(=O)c1C(c1ccccc1[N+](=O)[O-])C(C#N)C#N (stereo not given) |  |  |  |  | AC50 [13]: 3.3 µM (active); EC50 (Protein RecA): 7.28 µM (active); IC50 (Genome polyprotein): 86.4 µM (active)
13 | CCOc1cc(/C=N/n2nnnc2N)ccc1OCc1c(C)no[n+]1[O-] |  | 11.8 µM (inactive) | 2.22 µM (active) | 35.9 µM (inactive) | 

Source: ChEMBL document CHEMBL1201862, “PubChem BioAssay data set” (2004)
